Experimental data: the CheMixHub drug solubility set

Assay: xn = mol fraction of the nth substance listed, in the solute-free solvent

CCOc1ccccc1C(N)=O + CC#N + CC(C)O
solubility (g/100 g solution)
Settings	x2 = 0.1	x2 = 0.2	x2 = 0.3	x2 = 0.4	x2 = 0.5	x2 = 0.6	x2 = 0.7	x2 = 0.8	x2 = 0.9
298.15 K	4.36	5.28	6.05	6.41	6.8	6.66	6.22	5.59	4.71
303.15 K	5.5	6.58	7.52	8.13	8.55	8.45	7.99	7.3	6.12
308.15 K	6.49	7.95	9.11	10.1	10.4	10.5	10.1	9.2	7.99
313.15 K	8.08	9.85	11.3	12.4	13	13	12.6	11.7	9.97
318.15 K	10.2	12.3	14.1	15.4	16.1	16.2	15.6	14.4	12.6
323.15 K	13	15.5	17.7	19.2	20.1	20.3	19.6	18.3	16.1

Nc1nc2ccc(OC(F)(F)F)cc2s1 + CC(C)=O + O
solubility (g/100 g solution)
Settings	278.15 K	283.15 K	288.15 K	293.15 K	298.15 K	303.15 K	308.15 K	313.15 K	318.15 K	323.15 K
x2 = 0.1174	2.79	2.99	3.26	3.49	3.89	4.23	4.48	4.79	4.98	5.23
x2 = 0.1714	6.6	6.96	7.42	7.95	8.29	8.75	9.09	9.43	9.77	10.1
x2 = 0.2367	25.5	25.9	26.5	27	27.6	28	28.5	29.1	29.8	30.1
x2 = 0.3175	40.2	40.6	40.9	41.1	41.5	41.8	42	42.3	42.7	43
x2 = 0.4203	55.1	56.3	57	57.7	59	60.2	61.1	62.2	62.9	63.6
x2 = 0.5537	70.6	71.7	72.7	73.6	74.5	75.3	76.2	76.7	77.2	77.8
x2 = 0.7361	68	69	69.9	71	71.8	72.8	73.6	74.2	75	75.7

Cc1nc2n(c(=O)c1CCN1CCC(c3noc4cc(F)ccc34)CC1)CCCC2 + CCO + O
solubility (g/100 g solution)
Settings	278.15 K	283.15 K	288.15 K	293.15 K	298.15 K	303.15 K	308.15 K	313.15 K
x2 = 0.1436	0.173	0.214	0.262	0.329	0.397	0.487	0.592	0.73
x2 = 0.2069	0.628	0.744	0.919	1.1	1.4	1.68	2.06	2.58
x2 = 0.2812	1.72	2.03	2.47	2.94	3.58	4.32	5.34	6.64
x2 = 0.3627	3.31	3.98	4.66	5.53	6.67	8.06	9.77	12
x2 = 0.4768	4.74	5.58	6.59	7.76	9.19	11	13.2	15.9
x2 = 0.6101	4.86	5.65	6.62	7.77	9.18	10.8	12.9	15.2
x2 = 0.779	3.01	3.56	4.18	4.97	5.91	7.06	8.5	10.1

CCOc1ccccc1C(N)=O + CC(C)O + CC#N
293.15 K
Settings	solubility (g/100 g solution)
x2 = 0.1	3.74
x2 = 0.2	4.36
x2 = 0.3	4.92
x2 = 0.4	5.26
x2 = 0.5	5.44
x2 = 0.6	5.14
x2 = 0.7	4.81
x2 = 0.8	4.2
x2 = 0.9	3.48

CC(S)C(=O)NCC(=O)O (centres undefined) + CC(C)CO + CC#N
solubility (g/100 g solution)
Settings	273.15 K	278.15 K	283.15 K	288.15 K	293.15 K	298.15 K	303.15 K	308.15 K	313.15 K	318.15 K
x2 = 0.1216	3.99	4.43	4.93	5.48	6.05	6.7	7.36	8.06	8.81	9.64
x2 = 0.2697	4.62	5.31	6.02	6.81	7.59	8.41	9.25	10.1	11.2	12.4
x2 = 0.4538	7.02	7.59	8.23	8.89	9.58	10.4	11.1	12	13	13.9
x2 = 0.689	4.17	4.7	5.22	5.84	6.48	7.14	7.88	8.69	9.56	10.5

Nc1nc2ccc(OC(F)(F)F)cc2s1 + CCO + O
solubility (g/100 g solution)
Settings	278.15 K	283.15 K	288.15 K	293.15 K	298.15 K	303.15 K	308.15 K	313.15 K	318.15 K	323.15 K
x2 = 0.2068	16	19.7	23.8	26.5	32.5	38.3	43.3	47.4	51.7	55.5
x2 = 0.2812	31.4	35.5	39.9	43.9	48.1	52.1	56.1	59.6	62.5	64.8
x2 = 0.3697	56.3	58.7	60.7	63.2	65.5	67.8	69.7	70.9	72.7	74
x2 = 0.4772	50.7	53.3	55.4	58.1	60.6	63.6	66	68	69.9	71.4
x2 = 0.6099	53.2	55.1	57.4	59.7	61.7	63.6	65.3	67	68.6	69.9
x2 = 0.7786	52.6	54.4	57.2	59	61.3	63.1	64.9	66.7	68.2	70
